Measurements reported in patent EP2563337B1, “CARRIER AND TARGETING SYSTEM COMPRISING A SIOSOMAL COMPOSITION FOR INTRACELLULAR DELIVERY AND TARGETING OF ACTIVE SUBSTANCE” (Salama, Zoser B., priority 2010, dated 2011).
Like-named read-outs stand apart in the source and are kept apart here.

Experiments:
[1] = Encapsulation efficiency of doxorubicin hydrochloride in siosomes (absorbance at 480 nm after gel filtration); format: physicochemical
Method: A doxorubicin hydrochloride solution at 10 mg/ml was prepared using physiological saline. The predetermined amount of the doxorubicin hydrochloride solution was added to the sugar siosome dispersion using the cationic organosilicon compounds such as 1.2-(Dimethyldecylsilyl)ethyl-beta-D-glucosamin, 2.2-(Dimethyloctylsilylcholin)ethyl-beta-D-glucopyranosid and/or 1.2-(DiN,N,N,trimethylammoniadecylsilyl)ethyl-beta-D-glucopyranosid and the mixture was adjusted to pH 7.4, using 1 N NaOH or saturated sodium hydrogencarbonate and the mixture was stirred at 65°C for 30 minutes the thereby introduce the doxorubicin hydrochloride in the siosomes.
After doxorubicin hydrochloride introduction, the sample was cooled in an ice bath. Gel filtration was conducted using a column (Sepharose 4, fast flow, having a diameter of 2.8 cm and a length of 20 cm, fully substituted with 10% sucrose (pH 6.5)) to remove the doxorubicin hydrochloride that had not been introduced in the siosomes.
The amount of the sugar silanes in the siosomes, the amounts of the doxorubicin hydrochloride encapsulated in the siosomes and the siosomes themselves were measured by the same methods as in the above examples.
Concentration of the doxorubicin hydrochloride encapsulated in the siosomes was determined by measuring absorbance at 480 nm, using a spectrophotometer for the solution prepared by adding 2 ml of methanol to 40 µl of the doxorubicin siosomes. An alternative HPLC-based assay has also been used for the quantification of the doxorubicin in the formulations.
The above procedures described in example 16 were employed to prepare the carrier siosomes systems in this example. According to these methods of preparation, a dispersion of each of the following organo-silicon compounds were prepared, using doxorubicin hydrochloride solutions at […]. • Sil 8.1: Decyldimethylsilyl-α-D-galactopyranosid • Sil 9.1: Dodecyldimethylsilyl-α-D-glucopyranosid • SIL 15: 1-O-Dioctadecylsilyl-di(2,3,4,6-O-tetracetyl-β-D-galactopyranosid) • SIL 14: 1-o-Dioctadecylsilyl-di(2,3,4,6-O-tetracetyl-β-D-glucopyranosid)1-o- • SIL17: Didodecylsilyl-di(2,3,4,6-O-tetracetyl-β-D-glucopyranosid) • SIL18: Tridodecylsilyl-(2,3,4,6-O-tetracetyl-β-D-glucopyranosid) • Sil22.1 Di(octadecanoyloxy)dimethylsilan
The following parameters have been determined: 1 Physico chemical properties 2 Encapsulated efficiency of doxorubicin 3 Stability 4 Particle size distribution prior to lyophilisation and after dehydration using sterile water for injection 5 Release profile

[2] = Encapsulation efficiency of nucleic acid in cationic silane siosomes; format: physicochemical; details: Example 21 (i): nucleic acid-siosomes complex of the cationic silane
Source text: The cationic silanes-lipid mixture and/or the empty cationic siosomes (the same or different siosomes prepared from the same or different silanes) loaded with buffer and/or cations (2^+) such as Ca^2+, Zn^2+, Mg^2+ at selected pH-values, is hydrated in an appropriate medium containing the nucleic acid.
The mixture will be vortexed and/or sonicated for a period of time at suitable temperature.
Procedures for characterisation, particle stirring, stability, release, lyophilisation, sterilisation, rehydration, storage, and administration were employed according to this invention.

[3] = for Particle size range of the Doxorubicin-siosomes (nm): Example 18: doxorubicin-siosomes prepared from the single organosilicon compound; for Particle size of the siosomes (nm): Example 21 (i): nucleic acid-siosomes complex of the cationic silane; for Particle size range (nm): Example 16, Table 5: doxorubicin-sugar-siosomes of the cationic organosilicon compound
Method: The siosome size was measured using Zetasizer (Malvern Instruments).
The obtained test samples were analyzed using a Zetasizer from Malvern to measure the particle size of the Siosomes® and its concentration (via determination of the count rate which related to the sample quality and concentration).
The Zetasizer from Malvern performs particle size measurements using a process called Dynamic Light Scattering (DLS). Dynamic Light Scattering (also known as PCS - Photon Correlation Spectroscopy) measures Brownian motion and relates this to the size of the particles. It does this by illuminating the particles with a laser and analyzing the intensity fluctuations in the scattered light. If the particles or molecules are illuminated with a laser, the intensity of the scattered light fluctuates at a rate that is dependent upon the size of the particles as smaller particles are "kicked" further by the solvent molecules and move more rapidly.

[4] = Intracellular distribution of Cis-Oxoplatin within the rat liver, total platinum in liver homogenate and fractions; format: in vivo; details: for Average concentration of total platinum in the liver homogenate: 1.5 mg Cis-Oxoplatin encapsulated in Siosomes of the compound, intravenous, 3 hours after administration
Source text: • 1. The objective of the study to assess the intracellular distribution of Cis-Oxoplatin (as model drug molecule) in rat liver using Cis-Oxoplatin encapsulated in Siosomes®, using the following organosilicon compounds: • a. Sugar Organosilicon Compound: Didodecylsilyi-di(2,3,4,6-O-tetraacetyl-β-D-glucopyranosid (SIL 17) • b. Cationic Sugar Organosilicon Compound: 2.2-(Dimethyloctylsilylcholin)ethyl- β-D-glucopyranosid (SIL62) • c. Anionic Sugar Organosilicon Compound: 2-(Dimethyidecylsilyl)ethyl-β-D-glucopyranosidsulfate (SIL56) • d. Zwitterionic Sugar Organosilicon Compound: 2-(N,N,N, trimethylammonianonaylsilyl)ethyl- P-D-glucopyranosidsulfate (SIL66) • e. PEGylated Organosilicon Compound: 2-(Dimethyloctylsilylcholin)ethyl-β-D-PEG-acetylglucosaminether (SIL54) • 2. The different Siosomes® using each of the above mentioned organosilicon compounds have been prepared according to the procedures of this invention. The particle size range of the Siosomes® was 120-300 nm.
The Platinum-Siosomes®-Complex formulations were supplied in vials containing 10 mg each. Before administration, the contents of each vial was dissolved using 2 ml of sterile distilled water.
Each rat was administered with 1.5 mg investigative formulation, therefore each rat was administered 300 µl.
At the start of the study, all animals in all treatment groups received 1.5 mg of investigative drug. All drugs given via intravenous route were treated in an ultrasonic bath for five minutes at room temperature.
Tissue fractionation was performed by differential centrifugation yielding 5 fractions: • a. Mitochondrial fraction • b. Cytosol • c. Lysosomes • d. Microsomal fraction • e. Membrane fraction
Animals have been sacrificed 3 hours after the administration of the Siosomes® formulations. The livers have been removed from all animals. The liver homogenate has been prepared from the liver of each treatment group and used for the fractionation of the liver cells.
Each of the animals in the treatment control group for the determination of total platinum in the liver homogenate have been administered the Drug-Siosomes® formulations in the same way/procedures as the treatment groups.
Total platinum concentrations have been determined in each fraction for the treated and untreated animal groups. • Average animal weight = 211.64 ± 21.23 g • Average liver weight = 10.40 ± 1.27 g • Average concentration of total platinum in the liver homogenate of the treatment groups (control) • Group 1: Sugar Organosilicon Compound = 2.34 ± 0.82 µg/g • Group 2: Cationic Sugar Organosilicon Compound = 4.40 ± 1.30 µg/g • Group 3: Anionic Sugar Organosilicon Compound = 2.20 ± 0.90 µg/g • Group 4: Zwitterionic Sugar Organosilicon Compound = 3.10 ± 0.70 µg/g • Group 5: PEGylated Organosilicon Compound = 2.90 ± 1.20 µg/g

[5] = format: physicochemical; details: unloaded Siosomes
Method: The following are the general procedures according to this invention for the preparation of the Siosomes® using ethanol injection method: • An ethanol solution of the Sugar Silane was injected rapidly into an excess of de-ionized water through a syringe equipped with a fine needle. The force of injection is in many cases sufficient to achieve a good Siosomes® suspension. In some cases the Siosomes® suspension was sonicated during the injection and afterwards for additional 15-45 minutes. The ratio of injected ethanol to water is maintained in a way that the resulting suspension contains not more than 4-7.5% ethanol. The Siosomes® suspension was prepared with a Sugar Silane concentration of 0.5-2.5 mg/ml depending on the used Silane. With this concentration, the final Siosomes® suspension is ready for use for many applications and for the preparation of the lyophilised Siosomes® powder.
The unloaded Siosomes® prepared according to the procedures of this invention using ethanolic solution injection has been investigated for stability.
The following parameters have been considered: • The optimal particle size of the Siosomes® for the further application of the Siosomes® for the encapsulation of active, for screening and for the performance of in-vitro and in-vivo animal studies • The optimal manufacturing conditions to achieve the best particle size distribution for the required particle size (approximately 90 %) • The performance of the Stability testing for the unloaded Siosomes® using the particle size measurements and their distribution • The performance of the Stability testing of the prepared unloaded Siosomes® at 4°C, 25°C and 37°C and 42°C • Stability testing of the prepared encapsulated Siosomes® at: Acidic conditions, alkaline conditions, oxidative conditions and light
All measurements are performed with a Malvern Zetaziser. The Zetasizer was programmed to perform 3 x 15 measurements for each sample. For each temperature and reading point (for each temperature test series 12 sample measurements were performed) two samples has been tested.
The count rate is measured in Kcps (Kilo counts per second), and enables the samples quality and concentration to be checked.

[6] = Example 18: doxorubicin-siosomes prepared from the single organosilicon compound
[7] = Example 16, Table 5: doxorubicin hydrochloride in sugar siosomes of the cationic organosilicon compound

Compound	Encapsulation efficiency (%) [1, 6]	Encapsulation efficiency (%) [2]	Particle size range of the Doxorubicin-siosomes (nm) [3]	Particle size of the siosomes (nm) [3]	Encapsulation efficiency (%) [1, 7]	Particle size range (nm) [3]	intracellular distribution of the encapsulated drug in all fractions ([4]; rat liver fractions (mitochondrial, cytosol, lysosomes, microsomal, membrane), intravenous application, compared with other Siosomes)	Average concentration of total platinum in the liver homogenate ([4]; rats) [µg/g]	concentration of total platinum in the liver homogenate compared with the other treatment groups ([4]; rats, i.v administration of Cis-Oxoplatin Siosomes, 3 hours)	particle size diameter ([5]; 42°C)	stability of the aqueous solutions of the Siosomes suspensions ([5]; 4°C, 25°C, 37°C and 42°C)	count rate ([5]; 42°C)	count rate ([5]; over several days)
1. 2-(Di-N,N,N, trimethylammoniadecylsilyl) ethyl-beta-D-glucopyranosid [SIL 63]	65-70%	70-80%	120-200 nm	150-250 nm									
1. 2-(Dimethyldecylsilyl) ethyl-beta-D-glucosamin [SIL 61]	80-85%	80-85%	200-220 nm	80-120 nm	75-82%	120-240 nm							
2-(N,N,N,Dimethylammonia-methyl-decylsilyl)ethyl-beta-D-glucopyranosid [SIL 65]	60-70%	80-85%	200-250 nm	160-240 nm									
2. 2-(Dimethyloctylsilylcholin) ethyl-beta-D-glucopyranosid [SIL 62]	70-75%	75-80%	220-250 nm	110-180 nm	70-80%	150-220 nm	significantly higher	4.40 ± 1.30	significantly higher				
CCCCCCCCCC[Si](C)(C)CCO[C@@H]1O[C@H](CO)[C@@H](O)[C@H](O)[C@H]1O [SIL 2, 2-(Dimethyldecylsilyl)ethyl-β-D-glucopyranosid]										growing after 4 days			
CCCCCCCCCCCC[Si](CCCCCCCCCCCC)(O[C@@H]1O[C@H](COC(C)=O)[C@@H](OC(C)=O)[C@H](OC(C)=O)[C@H]1OC(C)=O)O[C@@H]1O[C@H](COC(C)=O)[C@@H](OC(C)=O)[C@H](OC(C)=O)[C@H]1OC(C)=O [SIL 17, Didoceclylsilyl-di(2,3,4,6-O-tetraacetyl-β-D-glucopyranosid)]	80-85%		180-240 nm					2.34 ± 0.82			stable for several days	drops a little bit after several days but not drastically	stable
Di-N,N,N, trimethylammoniadidodecylsilyl-di(2,3,4,6-O-tetraacetyl-beta-D-glucopyranosid) [SIL 64]	70-75%	65-75%	140-220 nm	120-220 nm	70-85%	120-200 nm							
